Assay results published in patent US20080039531A1, “Compositions, and kits comprising targeted aldehyde or acetal protease inhibitor compounds for treating muscle disorders” (priority 2005, published 2008).
Entries after “also recorded” stand apart in the source; their conditions may differ.

What was measured:
[1] = Absorption of leupeptin into plasma after intramuscular injection (FIG. 2); type: in vivo, rats; conditions: leupeptin 18 mg/kg intramuscular injection in hind-limbs
Protocol: To determine that leupeptin was effectively being absorbed into plasma following intramuscular (“IM”) administration in hind-limbs of 18 mg/kg, blood was withdrawn at 60, 75, 90, 120, 180 minutes and 24 hours after the IM injection (FIG. 2).

Calpain [2] = assay: Monkey study, intramuscular leupeptin: muscle calpain activities; type: in vivo, Cebus apella; conditions: right, nerve-repaired opponens and abductor muscles, 12 and 24 weeks
Excerpt: In order to test the hypothesis that in vivo inhibition of calpains by leupeptin can facilitate neuromuscular recovery by inhibiting denervation atrophy of the skeletal-muscle target after complete peripheral nerve transection and delayed nerve repair (7), a monkey study (Cebus apella) was undertaken. This median-nerve model was chosen to approximate human anatomic and regenerative aspects.

[3] = Monkey study, oral leupeptin: hematology, blood clotting, serum biochemistry; type: in vivo; conditions: monkeys, oral leupeptin 3, 6, 12, 18 mg/kg twice daily for 6 months after nerve repair
Protocol: (§1) Subsequent to the above studies another series of experiments were performed on the monkeys to assess another route of leupeptin administration in these animals (8). In this regard, oral delivery of leupeptin, after median nerve transection and epineural nerve repair, was studied for its potential benefits to neuromuscular recovery. […] When plasma leupeptin concentrations were 3 mg or greater, morphologic and functional motor recovery were facilitated after nerve repair.
Hematology/blood chemistry. Blood was drawn from the femoral vein at 1, 3, 4, 5, and 7 months postoperatively. Complete blood counts, clotting parameters, and serum chemistries in control animals and in animals after oral leupeptin administration at 3, 6, 12, and 18 mg/kg were quantified. Values were determined for hemoglobin, hematocrit, WBC, RBC, MCV, MCH, MCHC, differential (polymorphonuclear leukocytes, lymphocytes, monocytes, eosinophils, basophils), platelets, prothrombin time, partial thromboplastin time, glucose, urea nitrogen, creatinine, total protein, albumin, total bilirubin, alkaline phosphatase, SGPT, SGOT, lactic dehydrogenase, cholesterol, calcium, phosphorus, sodium, potassium, chloride, A/G, BUN/creatinine, globulin, amylase.

[4] = tested on: opponens pollicis and abductor pollicis myofibers; assay: Monkey study, oral leupeptin: myofiber diameter after median nerve repair; type: in vivo, monkeys; conditions: for percentage atrophy: loss of myofiber diameter vs left, unoperated control group: 3 months post nerve repair
Protocol: as §1
When expressed as a percentage atrophy, in comparison to the left, unoperated control group, the right control group lost 63 percent of its myofiber diameter; the 3-mg group lost 53% of its myofiber diameter; the 6-mg group 23%; the 12-mg group 11%; and the 18-mg group only 8%.

calpain [5] = conditions: rats, IP, muscle isolated after 2 hours
Protocol: An initial series of toxicology experiments was performed in rats to assess the effect of CLA at various doses, on animal viability. […] A series of experiments to examine the ability of CLA vs. leupeptin to decrease activated calpain levels and inhibit muscle wasting was conducted. In the experiment shown in Table 4, rats were utilized to assess the effect of IP injection of either leupeptin or CLA into the hind limb muscle on their ability to inhibit calpain activity. To this end, four rats were injected IP with either leupeptin or CLA. After 2 hours, the muscle was isolated, homogenized, and assayed for remaining calpain activity by the standard assay.

CC(=O)N[C@@H](CC(C)C)C(=O)N[C@@H](CC(C)C)C(=O)N[C@H](C=O)CCCNC(=N)N [Leupeptin]
peak plasma level [1]: 4.5 µg/mL
time of plasma peak [1]: 1 h
concentration at 24 h ([1]; rat, plasma, 24 hr, read-out: plasma level by 24 hr): 0 ng/mL
mean increase of calpain activities in control animals compared to leupeptin treated animals (Calpain [2]): 50%
hematology, blood clotting and serum biochemistry [3]: no adverse effects; also recorded: no significant differences
mean myofiber diameter vs left control group ([4]; left abductor pollicis, 6 months, 6-mg, 12-mg, 18-mg groups, p<0.01 (FIG. 5)): small but significant increase
mean myofiber diameter vs right control group ([4]; right abductor pollicis, 6 months after nerve repair, 6-mg, 12-mg, 18-mg groups, p<0.01 (FIG. 5)): significant increase
percent atrophy: loss of myofiber diameter vs left, unoperated abductor pollicis ([4]; right abductor pollicis, 6 months after nerve repair, oral leupeptin 3-mg group): 30%
percent atrophy: loss of myofiber diameter vs left, unoperated abductor pollicis ([4]; right abductor pollicis, 6 months after nerve repair, oral leupeptin 6-mg group): 5%
increase in myofiber diameter (no atrophy) vs left, unoperated abductor pollicis ([4]; right abductor pollicis, 6 months after nerve repair, oral leupeptin 12-mg group): 1.2%
increase in myofiber diameter (no atrophy) vs left, unoperated abductor pollicis ([4]; right abductor pollicis, 6 months after nerve repair, oral leupeptin 18-mg group): 1.3%
mean myofiber diameter vs right control group ([4]; right opponens pollicis, 3 months after nerve repair, all leupeptin treatment groups, p<0.01 (FIG. 4)): significant increase
percentage atrophy: loss of myofiber diameter vs left, unoperated control group ([4]; right opponens pollicis, oral leupeptin 3-mg group): 53%
percentage atrophy: loss of myofiber diameter vs left, unoperated control group ([4]; right opponens pollicis, oral leupeptin 6-mg group): 23%
percentage atrophy: loss of myofiber diameter vs left, unoperated control group ([4]; right opponens pollicis, oral leupeptin 12-mg group): 11%
percentage atrophy: loss of myofiber diameter vs left, unoperated control group ([4]; right opponens pollicis, oral leupeptin 18-mg group): 8%
% inhibition of muscle calpain activity (calpain [5]; 75 μmoles): 20%
% inhibition/μmole (calpain [5]): 0.26%
Fold (effectiveness per μmole relative to leupeptin) (calpain [5]): 1
